The results in this text go back to ChEMBL document CHEMBL3507680, “University of Dundee, Gates Library screen for HepG2 cell viability”.

This data set can be described thus: Human HepG2 cell viability assay in 384 well format. Format: toxicity, cell-based. More on the design: dose 125 nL, time 70.5 hour; cytotoxicity at 70.5 h: concentration not given beside the values. The note with it: HepG2 cells, read-out: Inhibition.
Consider `O=C(c1ccncc1)N(CCO)Cc1cc(Br)ccc1F`, for which the cytotoxicity at 70.5 h was -10.4%. On to `CC1(NC(=O)Cc2csc(-c3ccccc3Cl)n2)CCS(=O)(=O)C1` (stereo not given), for which the cytotoxicity at 70.5 h was -88.9%.

As for `CCOc1nn(CC)cc1-c1nnc(SCC)n1C`, the cytotoxicity at 70.5 h is -12.3%.

Turning to `Cc1nc(CNC(=O)NCCC2=CCCC2)oc1C`, the cytotoxicity at 70.5 h is 7.64%. The same measure for `N#Cc1cccnc1N1CCCN(C(=O)CCc2cccs2)CC1`: -4.16%; for `O=C(C1CCC1)N1C[C@@H]2CN(Cc3ccncc3)C(=O)[C@@H]2C1`: -12.5%; for `Cc1ccccc1OCCCC(=O)NC(C)c1nnc2n1CCC2` (stereo not given): -2.09%. In the case of `Cn1nc(COc2cccnc2)c2c1CCN(CC1CC1)C2` it was -8.94%; in that of `Cc1csc(N2CCN(C(=O)c3ccc(C)s3)CC2)n1`, 5.75%. In the case of `Cc1cccc(Cn2cc(Br)c(NS(C)(=O)=O)n2)c1` it was -6.39%. For `Cc1[nH]ccc1C(=O)N1CCN(C)C2(CCC(=O)N(C)CC2)C1` (stereo not given), the cytotoxicity at 70.5 h is -11.2%. In the case of `CCc1cc(NC(CCO)c2ccc(OC)cc2)n2nccc2n1` (stereo not given) it was -0.73%. In the case of `COc1cnc(N2CCC(Oc3ccccc3OC)(C(=O)O)CC2)nc1` it was -3.07%; in that of `CCc1n[nH]c(C2CN(C(=O)c3ccc(Cl)cn3)CCO2)n1` (stereo not given), -8.84%; in that of `Cc1nnc([C@H]2C[C@H]3OCC[C@H]3N(S(=O)(=O)C3CC3)C2)o1`, 5.23%. In the case of `Cc1ccc(CN2CCc3nnc(COCCN(C)C)n3CC2)o1` it was -11.2%; in that of `Cc1noc(CCCNC(=O)C2CSCN2C(=O)C(C)(C)C)n1` (stereo not given), 18.7%; in that of `COCC1CN(C(=O)C2=CCCC2)Cc2cnn(CC3CC3)c21` (stereo not given), -2.82%. Take `C[C@@H]1CC[C@@H](C)N1C(=O)c1cc(COc2ccccc2)[nH]n1`: the cytotoxicity at 70.5 h was -0.483%. In the case of `O=C(NC1CCCN(c2ccccn2)C1)C1(c2ccccc2F)CC1` (stereo not given) it was 15.1%; in that of `O=C(CN1CCCCC1)Nc1cc(C(F)(F)F)ccc1-n1cccc1`, -9.88%. On to `NCc1cn(-c2ccccc2C(=O)NCc2cccc(Cl)c2)cn1`, for which the cytotoxicity at 70.5 h was -13.7%. The same measure for `Cc1n[nH]cc1CNC(=O)[C@H]1CCCCN1C(=O)OC(C)(C)C`: 8.82%; for `CC(=O)N(Cc1ncc(C(C)C)o1)C1CCN(CC2CCC2)C1` (stereo not given): -3.28%. In the case of `CC1CCN(C)c2ccccc2N1C(=O)c1ccn(C)c(=O)c1` (stereo not given), the cytotoxicity at 70.5 h is -6.59%. For the molecule `CC(C)N1CCC(c2cnc(-c3cncnc3)cn2)CC1`, the cytotoxicity at 70.5 h stood at 21.3%. For the molecule `CNc1cccc(C2CN(C(=O)CNS(C)(=O)=O)CCO2)n1` (stereo not given), the cytotoxicity at 70.5 h is 13%.

Turning to `Cn1ncc2c1CCCC2NCc1cccnc1` (stereo not given), the cytotoxicity at 70.5 h is -18.9%. The same measure for `Cc1nnn2c1COC(CNCc1nccs1)C2` (stereo not given): 2.74%; for `Cc1ccc(NC2CCN(C(=O)CC3CCCO3)CC2)nn1` (stereo not given): -11.8%; for `CN(C)CC(=O)Nc1ccc(C(=O)N(C)CCc2cn[nH]c2)cc1`: -1.37%.

With `Cc1cc(C)n(CCC(=O)N2CCC(c3nc(C(C)C)no3)CC2)n1`, the cytotoxicity at 70.5 h was -5.07%. In the case of `COc1ccccc1CN1CC[C@]2(C[C@H](OC)CO2)C1` it was -12.6%; in that of `CCc1cc(NC(=O)N2CCC(Oc3cccnc3)C2)n(C)n1` (stereo not given), -6.65%. In the case of `COc1ccc(OC)c(NC(=O)CSc2ccc3nncn3n2)c1` it was -8.56%; in that of `CCn1nc(C)c2nc(C)nc(NCCCn3cccn3)c21`, -7.44%; in that of `COCCN1CCC(Nc2c(F)cc(C#N)cc2F)CC1`, -14.5%.

With `Cc1cnc(CN(C)C2CCN(Cc3ccccc3C#N)C2)o1` (stereo not given), the cytotoxicity at 70.5 h is -5.36%. In the case of `Cc1occc1C(=O)N1CCC2(CCN(Cc3cccs3)C2)CC1` it was -1.13%; in that of `Cn1cnnc1C1CCCN(C(=O)NCCOc2ccccc2)C1` (stereo not given), 40.2%.

As for `O=C(NCCNC(=O)c1ccc(Cl)cc1)NCCn1cccc1`, the cytotoxicity at 70.5 h is -4.35%. `CCN1CCn2c(C)cnc2C12CCN(C(=O)CC(C)C)CC2`: the cytotoxicity at 70.5 h was -2.3%. On to `COc1ccc(CNC(C)c2ccc(Cl)cc2)c(OC)c1OC` (stereo not given), for which the cytotoxicity at 70.5 h turned out to be 13.3%. In the case of `CC(=O)N(Cc1ncc(C)o1)C1CCN(Cc2cc(C)on2)C1` (stereo not given) it was -4.42%. In the case of `Cc1cc(C[C@@H]2COC[C@@H]2NC(=O)CCN2Cc3ccccc3C2)on1` it was 11.4%. With `COc1ccc(F)c(CN2CCCC3(CCN(S(C)(=O)=O)C3)C2)c1` (stereo not given), the cytotoxicity at 70.5 h is -10.2%. For the molecule `CC(C)(CO)NCc1nn(Cc2ccccc2)nc1-c1ccccc1`, the cytotoxicity at 70.5 h is 27.2%. The same measure for `CCn1nc(C)c(C(=O)N2C[C@@H](CN(C)CCOC)[C@@H](CO)C2)c1C`: -6.72%; for `CCN1CCc2[nH]cnc2C12CCN(c1ccc(Cl)cn1)CC2`: -4.3%; for `O=C1NC2(CCCCC2)c2nnnn2-c2ccc(Br)cc21`: -5.57%. The same measure for `CC(C)n1cc(CN2CCCN(C(=O)c3ccoc3)CC2)cn1`: 27.6%; for `CC(=O)N1CCCC1c1cc(Nc2nnc(C)s2)nc(C)n1` (stereo not given): 17.2%.

As for `CCC(=O)NC(C)c1ccccc1C` (stereo not given), the cytotoxicity at 70.5 h worked out at 0.0127%. Turning to `COc1ncccc1CNC(=O)N(Cc1ccc(F)cc1F)C1CC1`, the cytotoxicity at 70.5 h was -12.4%. In the case of `Cc1ccc(C2COCCN2C(=O)c2ccc(N(C)C)cc2)o1` (stereo not given) it was -8.97%; in that of `O=C(c1occc1CN1C(=O)Cc2ccccc21)N1CC(O)C1`, -1.51%; in that of `CC(C)n1cnnc1CNC(=O)c1cnn(-c2ccccc2)c1`, 10%. In the case of `Cc1cn2c(n1)CCC(NC(=O)c1cc(C(C)C)no1)C2` (stereo not given) it was -7.72%; in that of `COc1ccccc1CNC1(CCO)CCOCC1`, 20.6%. `CCc1ccc(CNC(=O)NCc2nnc3n2CCC3)s1`: the cytotoxicity at 70.5 h came out at 17.1%. In the case of `CCc1nc(CN(Cc2cccs2)CC2CCCO2)no1` (stereo not given) it was 1.39%. In the case of `COc1ccc(NC(=O)CCN2CC=C(c3cnn(C)c3)CC2)cc1Cl` it was 5.66%. The same measure for `Cc1cc(C(C)NC(=O)c2c[nH]c(=O)c(Cl)c2)c(C)o1` (stereo not given): -1.21%; for `COc1nn(C)cc1C(=O)N1CCC(c2nnc(C(C)C)o2)CC1`: -4.14%. Turning to `CCC(CO)N(Cc1ccco1)C(=O)c1ccccc1SC` (stereo not given), the cytotoxicity at 70.5 h turned out to be 10.8%. In the case of `Cc1cc(-n2cccn2)ccc1CN1CCC(O)(CN2CCCCC2)C1` (stereo not given) it was 1.06%; in that of `NCCCC(=O)N1CCC2(CC1)CN(C(=O)c1ccc(Cl)cc1)CCO2`, -12.4%; in that of `CCn1c(CN2CCN(CCOC)CC2)nc2c(F)cccc21`, 2.86%. The same measure for `Cc1cc(C)n(Cc2cc(C(=O)N[C@H]3CCCCNC3=O)n[nH]2)n1`: -3.71%; for `OC(CN1CCOCC1)CN1CCc2c(ncn2C2CC2)C1` (stereo not given): 30.4%; for `O=C(c1cccnc1)N1Cc2ccccc2OCC1Cn1ccnc1` (stereo not given): 9.81%. As to `O=C(c1ccc(C2CCCN2C(=O)c2ccoc2)s1)N1CCOCC1` (stereo not given), the cytotoxicity at 70.5 h is -1.44%.

Consider `Cc1cc(C)n(CC2CCCN2C(=O)c2ccc3[nH]cnc3c2)n1` (stereo not given), for which the cytotoxicity at 70.5 h was -9%. The same measure for `CC(=O)Nc1cc(C(C)(C)C)sc1C#N`: -3.4%; for `Brc1ccc(CNCc2nnc3n2CCCCC3)s1`: -16.6%; for `CN(C)c1cc(CNC(=O)NCC2(C)CCCS2)ccn1` (stereo not given): 10.1%. The same measure for `Cc1nn(C)c(N(C)C)c1CNC1CCc2c(Cl)cccc21` (stereo not given): -1.83%. `CC(=O)N1[C@H](CN(C)C)C[C@@H]2CN(C(=O)c3cccc(F)c3)CC[C@@H]21`: the cytotoxicity at 70.5 h is -14.7%. `CN1CCN(C(=O)c2cc3sccc3n2Cc2ccccc2)CC1`: the cytotoxicity at 70.5 h is -6.85%. In the case of `CCCN(Cc1ccccc1O)S(=O)(=O)C(C)CC` (stereo not given) it was -5.52%. With `COC[C@@]12CC[C@@H](N3CCOCC3)C[C@H]1CCN(c1cc(C)ccn1)C2`, the cytotoxicity at 70.5 h is -1.61%.

For `CCOc1cccc(C(C(=O)O)N(C)Cc2cc(C)no2)c1` (stereo not given), the cytotoxicity at 70.5 h was -9.85%. With `CC1CN(C)c2ccccc2CN1C(=O)c1ccoc1` (stereo not given), the cytotoxicity at 70.5 h came to 10%. In the case of `CCC(NC(=O)c1ccc2[nH]ccc2c1)C(=O)N1CCOCC1` (stereo not given) it was 6.49%. For the molecule `O=C1CN(c2ccc(CNC(=O)NCc3ccoc3)cc2)CCN1`, the cytotoxicity at 70.5 h is -11.8%. For the molecule `COCc1c(Cl)cccc1NC(=O)NCc1cccc(N(C)C)n1`, the cytotoxicity at 70.5 h is 1.02%.

With `Cn1ccnc1C(=O)NC[C@@H]1OC[C@H]2CN(CC3CC3)CC[C@H]21`, the cytotoxicity at 70.5 h was -9.31%. The same measure for `CCN(CC1CCCO1)C(=O)NCCNC(=O)c1ccccc1F` (stereo not given): 43.4%; for `CCCn1nc(C)c(C(=O)N(C)[C@@H]2CC[C@@H](N3CCCC3)[C@@H]2O)c1C`: -5.14%; for `c1ncc2c(n1)CN(Cc1cn3ccsc3n1)CC2`: -4.44%. In the case of `CN(C)S(=O)(=O)N1CCC2(COCc3cnc(-c4cccnc4)nc32)C1` (stereo not given) it was -9.11%.

With `CC(C)C1CN(S(=O)(=O)N(C)C)CCCN1Cc1ccc(F)cc1` (stereo not given), the cytotoxicity at 70.5 h was 2.12%. As to `CCc1nc(CN(C)C(=O)c2cc(NC(C)=O)ccc2Cl)no1`, the cytotoxicity at 70.5 h is 18.6%. With `CSCC(=O)N1CCCC(CO)(CC2CC2)C1` (stereo not given), the cytotoxicity at 70.5 h is -11%. The same measure for `COc1cccc(NC(=O)c2nc3ccccc3n(C)c2=O)c1`: -6.23%; for `O=C(NC1CCCN(CCc2ccccc2)C1)c1cnccn1` (stereo not given): -3.22%; for `Cc1ccc(N2CCc3sc(C(=O)NCCN4CCCC4)cc32)nn1`: -0.377%. Turning to `COc1ccc(Br)cc1CCC(=O)N1CCC(O)CC1`, the cytotoxicity at 70.5 h was -4.79%. Take `CCOCC1CN(C(=O)CC2=CCCCC2)Cc2nnn(C)c21` (stereo not given): the cytotoxicity at 70.5 h is -12.8%. `CN(CCN1CCOCC1)C(=O)CCc1ccc(C(F)(F)F)cc1`: the cytotoxicity at 70.5 h turned out to be 10.6%.
